According to US5608095A, “Alkyl-4-silyl-phenols and esters thereof as antiatherosclerotic agents” (Hoechst Marion Roussel, Inc., priority 1996, dated 1997):
Like-named read-outs stand apart in the source and are kept apart here.

Legend:
VCAM-1 = experiment: Cell surface ELISA for VCAM-1 in human aortic smooth muscle cells (HASMC), interleukin-4 induced; assay type: cell-based; settings: 50 μm; for VCAM-1 (Avg.) % inh.: average of HSMC-1 to HSMC-3; for HSMC-1 % inh. of VCAM-1: experiment HSMC-1, interleukin-4, about 20 hr; for HSMC-2 % inh. of VCAM-1: experiment HSMC-2, interleukin-4, about 20 hr; for HSMC-3 % inh. of VCAM-1: experiment HSMC-3, interleukin-4, about 20 hr
Protocol: Cell Surface ELISA for VCAM-1/ICAM-1
Proliferating human umbilical vein endothelial cells (HUVEC) or human aortic smooth muscle cells (HASMC) from Clonetics (San Diego, Calif.) were plated onto 96-well plates in 100 μL medium per well at 20,000 cells per cm^2. The cultures were maintained in growth medium (EGM or SMGM2, Clonetics, San Diego, Calif.) for two days prior to addition of cytokines or drugs. Cytokines plus or minus compounds were added for 20 to 24 hours prior to analysis for adhesion molecule levels. Tumor necrosis factor (Genzyme, Cambridge, Mass.) was added to cultures at 500-1000 units/mL. Interleukin-4 (GIBCO-BRL, Gaithersburg, Md.) was added to cultures at 100-200 pg/mL. (Additions were made by transferring 100 [μL of cytokines plus compounds serially diluted on a separate 96-well plate into the plates containing cells. The medium on the cultures was not exchanged prior to addition of effectors). The culture medium was removed, and the monolayers were washed twice with Hanks buffered saline solution (HBSS) at room temperature. The primary antibody (anti-human VCAM-1 from Upstate Biotechnology, Inc., Lake Placid, N.Y. or anti-human ICAM-1 from Immunotech, Inc., Westbrook, Me.) was added to each well (1 μg/mL in HBSS plus 5% newborn calf serum, GIBCO-BRL, Gaithersburg, Md.) and incubated at 37° C. for 1 hr. The wells were washed twice with HBSS, then 100 μL of a 1/1000 dilution of goat anti-mouse IgG conjugated to horse radish peroxidase (BioRad, Hercules, Calif.) in HBSS plus 5% newborn calf serum was added to each well and incubated for 1 hr at 37° C. The wells were washed three times with HBSS, then 100 μL of TMB substrate (BioRad, Hercules, Calif.) was added to each well. The reaction was stopped after blue color developed by addition of 50 μL of 1N H2 SO4. Absorbance is measured at 450 nm with a plate reader. IC50 values were determined from curves of absorbance values obtained from serial dilutions of compounds (dissolved in dimethyl sulfoxide).
The IC50 value is defined as the drug concentration that inhibits the cytokine-induced adhesion molecule expression by 50%. Maximal values for adhesion molecule expression in cytokine-induced cultures was […] the basal level of adhesion molecule expression (minus cytokines) in the cultures to determine the level of induction. […] Each drug concentration was tested in quadruplicate wells. Single point tests of compounds at 50 μM were assayed as described for IC50 determinations, except that the data represent the level of inhibition without correction for basal expression. (Basal adhesion molecule expression was 10-20% of the total induced expression). Table 1 summarizes the ability of various compounds of this invention to inhibit VCAM-1 using human aortic smooth muscle cells (HASMC). In these experiments, the cells were coincubated with interleukin-4 and the compounds listed about 20 hr before assaying cell surface VCAM-1 levels. Each column represents a separate experiment.

[1] = system: serum cholesterol, LDL, HDL, triglycerides; experiment: Serum lipids and lipoprotein cholesterol in cholesterol-fed female New Zealand White rabbits; assay type: in vivo; settings: Oryctolagus cuniculus, po; for response vs control in vivo at 0.4 %: 168 h; for response vs control in vivo at 0.6 %: 336 h, diet 0.6%, 14 days
Outline: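 Female New Zealand White rabbits fed 0.2% cholesterol chow sprayed with 0.4% compound (some at 0.26% or 0.6%) for 7 days (0.6% arm, 14 days). Fasted serum: total cholesterol and triglycerides enzymatically (mg/dL); VLDL/LDL/HDL separated by Sepharose 6HR gel-filtration HPLC, post-column cholesterol reagent at 37 °C, A500.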

[2] = rabbit serum, diet 0.4%, 7 days, read-out: HDL cholesterol, percent of control
[3] = rabbit serum, diet 0.4%, 7 days, read-out: LDL cholesterol, percent of control
[4] = rabbit serum, diet 0.4%, 7 days, read-out: TRIG (triglycerides), percent of control
[5] = rabbit serum, diet 0.4%, 7 days, read-out: chol tot. (total cholesterol), percent of control

Row | SMILES | VCAM-1 (Avg.) % inh. (VCAM-1) | HSMC-1 % inh. of VCAM-1 (VCAM-1) | HSMC-2 % inh. of VCAM-1 (VCAM-1) | HSMC-3 % inh. of VCAM-1 (VCAM-1) | response vs control in vivo at 0.4 % [1, 2] | response vs control in vivo at 0.4 % [1, 3] | response vs control in vivo at 0.4 % [1, 4] | response vs control in vivo at 0.4 % [1, 5] | response vs control in vivo at 0.6 % ([1]; rabbit serum, read-out: TRIG (triglycerides), percent of control) | response vs control in vivo at 0.6 % ([1]; rabbit serum, read-out: chol tot. (total cholesterol), percent of control) | response vs control in vivo at 0.4 % ([1]; read-out: HDL cholesterol, percent of control) | response vs control in vivo at 0.4 % ([1]; read-out: LDL cholesterol, percent of control) | response vs control in vivo at 0.4 % ([1]; read-out: TRIG (triglycerides), percent of control) | response vs control in vivo at 0.4 % ([1]; read-out: chol tot. (total cholesterol), percent of control)
1 | CC(C)(C)c1cc(OC[Si](C)(C)c2ccccc2)cc(C(C)(C)C)c1OC(=O)CCC(=O)O [MDL 103,076, 2,6-Di-t-butyl-4-[(dimethylphenylsilyl)methyloxy]phenol succinic acid ester] | 43.9% | 30.6% | 55.0% | 46.0% | – | – | – | – | – | – | – | – | – | –
2 | CC(C)(C)c1cc(SC[Si](C)(C)c2ccccc2)cc(C(C)(C)C)c1OC(=O)CCC(=O)O [MDL 103,141, 2,6-Di-t-butyl-4-[(dimethylphenylsilyl)methylthio]phenol sucinic acid ester] | 31.2% | 13.7% | 47.0% | 33.0% | – | – | – | – | – | – | – | – | – | –
3 | CC(=O)Oc1c(C(C)(C)C)cc(OC[Si](C)(C)c2ccccc2)cc1C(C)(C)C [MDL 103,377, 2,6-Di-t-butyl-4-[(dimethylphenylsilyl)methyloxy]phenol acetic acid ester] | 45.5% | – | 45.0% | 46.0% | – | – | – | – | – | – | – | – | – | –
4 | CC(C)(C)c1cc(OC[Si](C)(C)c2ccccc2)ccc1O [MDL 103,491, 2-t-Butyl-4-[(dimethylphenylsilyl)methyloxy]phenol] | 53.0% | – | 57.0% | 49.0% | 103% | 81% | 134% | 85% | 216% | 139% | – | – | – | –
5 | CN(C)c1ccc([Si](C)(C)COc2cc(C(C)(C)C)c(O)c(C(C)(C)C)c2)cc1 [MDL 104,556, 2,6-Di-t-butyl-4-[(4-N,N-dimethylaminophenyldimethylsilyl)methyloxy]phenol] | 56.7% | 54.1% | 58.0% | 58.0% | 116% | 53% | 81% | 47% | – | – | – | – | – | –
6 | CC(C)(C)c1cc(OC[Si](C)(c2ccccc2)c2ccccc2)cc(C(C)(C)C)c1O [MDL 104,599, 2,6-Di-t-butyl-4-[(diphenylmethylsilyl)methloxy]phenol] | 45.7% | 50.1% | 38.0% | 49.0% | 105% | 71% | 64% | 76% | – | – | – | – | – | –
7 | CC(C)(C)c1cc(OC[Si](C)(C)c2ccccc2)c(C(C)(C)C)cc1O [MDL 104,962, 2,5-Di-t-butyl-4-[(dimethylphenylsilyl)methyloxy]phenol] | – | – | – | – | 163% | 105% | 159% | 118% | – | – | – | – | – | –
8 | Cc1cc(OC[Si](C)(C)c2ccccc2)c(C)c(C)c1O [MDL 105,314, 2,3,6-Trimethyl-4-[(dimethylphenylsdilyl)methloxy]phenol] | 28.2% | 8.7% | 38.0% | 38.0% | – | – | – | – | – | – | – | – | – | –
9 | CC(=O)Oc1ccc(OC[Si](C)(C)c2ccccc2)cc1C(C)(C)C [MDL 105,443, 2-t-Butyl-4-[(dimethylphenylsilyl)methyloxy]phenol acetic acid ester] | 25.8% | 11.4% | 44.0% | 22.0% | 115% | 97% | 127% | 98% | – | – | – | – | – | –
10 | CC(C)(C)c1cc(OC[Si](C)(C)c2ccc(C(F)(F)F)cc2)cc(C(C)(C)C)c1O [MDL 105,975, 2,6-Di-t-butyl-4-[(dimethyl-4-trifluoromethylphenylsilyl)methyloxy]phenol] | 19.8% | – | 20.0% | 51.0% | – | – | – | – | – | – | 76% | 77% | 143% | 69%
11 | COc1ccc([Si](C)(C)COc2ccc(O)c(C(C)(C)C)c2)cc1 [MDL 106,834, 2-t-Butyl-4-[(dimethyl-p-methoxylphenylsilyl)methyloxy]phenol] | – | – | – | – | 61% | 89% | 98% | 67% | – | – | – | – | – | –
